Measurements published in ChEMBL document CHEMBL1139612 (Bioorg Med Chem Lett, 2005).

Assays:
[1] = biological target: T1, Adrenergic receptor alpha-1 (Rattus norvegicus, UniProt P15823+P23944+P43140); assay: Inhibitory concentration against Alpha-1 adrenergic receptor in rat cerebral cortex membrane using [3H]prazosin as radioligand; assay type: cell membranes
T1 sequence (P15823 whole entry): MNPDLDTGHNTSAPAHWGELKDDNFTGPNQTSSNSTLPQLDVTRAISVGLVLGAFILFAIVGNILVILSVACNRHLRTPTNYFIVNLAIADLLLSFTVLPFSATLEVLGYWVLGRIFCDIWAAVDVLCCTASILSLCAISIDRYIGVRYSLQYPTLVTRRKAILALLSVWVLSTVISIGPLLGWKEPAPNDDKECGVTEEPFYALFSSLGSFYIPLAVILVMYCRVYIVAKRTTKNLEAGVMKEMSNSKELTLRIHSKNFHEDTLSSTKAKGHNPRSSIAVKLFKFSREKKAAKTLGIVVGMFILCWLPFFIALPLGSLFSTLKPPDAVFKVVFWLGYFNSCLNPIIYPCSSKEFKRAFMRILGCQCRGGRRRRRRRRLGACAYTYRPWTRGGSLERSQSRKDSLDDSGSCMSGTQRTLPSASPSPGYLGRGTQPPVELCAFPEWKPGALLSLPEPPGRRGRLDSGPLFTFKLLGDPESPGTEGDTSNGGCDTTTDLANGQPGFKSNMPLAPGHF
T1 sequence (P23944 whole entry): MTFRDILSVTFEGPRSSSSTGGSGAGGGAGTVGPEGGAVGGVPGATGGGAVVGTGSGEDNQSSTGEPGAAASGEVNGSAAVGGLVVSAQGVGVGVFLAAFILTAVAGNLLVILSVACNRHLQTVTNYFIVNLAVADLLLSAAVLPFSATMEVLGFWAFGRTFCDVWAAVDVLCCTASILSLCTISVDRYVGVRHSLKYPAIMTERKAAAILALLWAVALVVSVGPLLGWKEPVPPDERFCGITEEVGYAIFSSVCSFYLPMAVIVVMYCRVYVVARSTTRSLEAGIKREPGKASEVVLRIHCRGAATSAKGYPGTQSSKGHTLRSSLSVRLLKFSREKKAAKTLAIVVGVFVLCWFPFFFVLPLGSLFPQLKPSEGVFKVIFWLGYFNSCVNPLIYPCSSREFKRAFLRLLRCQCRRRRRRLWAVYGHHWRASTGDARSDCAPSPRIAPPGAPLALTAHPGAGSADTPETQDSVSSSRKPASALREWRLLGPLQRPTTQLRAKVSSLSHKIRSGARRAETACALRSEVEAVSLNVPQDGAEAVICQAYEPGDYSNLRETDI
T1 sequence (P43140 whole entry): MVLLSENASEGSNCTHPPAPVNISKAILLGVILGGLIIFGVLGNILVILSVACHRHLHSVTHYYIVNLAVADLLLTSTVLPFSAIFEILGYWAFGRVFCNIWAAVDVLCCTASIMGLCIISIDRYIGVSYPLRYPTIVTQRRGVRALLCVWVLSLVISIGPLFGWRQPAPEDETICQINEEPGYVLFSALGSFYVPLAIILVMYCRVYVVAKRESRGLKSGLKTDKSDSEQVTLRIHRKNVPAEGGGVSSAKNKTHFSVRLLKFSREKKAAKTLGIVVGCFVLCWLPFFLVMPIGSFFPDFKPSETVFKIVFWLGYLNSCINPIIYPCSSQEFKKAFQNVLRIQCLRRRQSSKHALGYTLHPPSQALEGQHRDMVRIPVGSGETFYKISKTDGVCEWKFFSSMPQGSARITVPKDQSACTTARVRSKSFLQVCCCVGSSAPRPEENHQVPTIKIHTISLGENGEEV

Rattus norvegicus = species: Rattus norvegicus; assay: Ratio of dopamine receptor D2 to that of 5-hydroxytryptamine 1A receptor
[2] = biological target: Serotonin 1a (5-HT1a) receptor/Adrenergic receptor alpha-1 (Rattus norvegicus) (UniProt P15823+P23944+P43140+P19327); assay: Ratio of alpha-1 adrenergic receptor to that of 5-hydroxytryptamine 1A receptor; assay type: protein assay
[3] = biological target: T2, 5-hydroxytryptamine receptor 1A (Rattus norvegicus, UniProt P19327); assay: Inhibitory concentration against 5-hydroxytryptamine 1A receptor in rat hippocampus membrane using [3H]-8-OH-DPAT as radioligand; assay type: cell membranes
T2 sequence (P19327 whole entry): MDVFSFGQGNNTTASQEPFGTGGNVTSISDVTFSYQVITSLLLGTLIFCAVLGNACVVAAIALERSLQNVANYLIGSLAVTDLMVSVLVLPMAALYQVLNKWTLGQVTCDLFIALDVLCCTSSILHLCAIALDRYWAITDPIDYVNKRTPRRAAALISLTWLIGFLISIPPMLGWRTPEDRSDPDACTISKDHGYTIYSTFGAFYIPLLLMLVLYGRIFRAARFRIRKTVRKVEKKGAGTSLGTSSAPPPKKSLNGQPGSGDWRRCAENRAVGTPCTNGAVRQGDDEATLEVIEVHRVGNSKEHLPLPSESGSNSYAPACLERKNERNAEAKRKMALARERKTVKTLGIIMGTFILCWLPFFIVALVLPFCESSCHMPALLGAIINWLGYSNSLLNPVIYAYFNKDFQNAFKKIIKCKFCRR

D(2) dopamine receptor = D(2) dopamine receptor (Rattus norvegicus, UniProt P61169); assay: Inhibitory concentration against Dopamine receptor D2 in rat striatum membrane using [3H]raclopride as radioligand; assay type: cell membranes
D(2) dopamine receptor, sequence (P61169 whole entry): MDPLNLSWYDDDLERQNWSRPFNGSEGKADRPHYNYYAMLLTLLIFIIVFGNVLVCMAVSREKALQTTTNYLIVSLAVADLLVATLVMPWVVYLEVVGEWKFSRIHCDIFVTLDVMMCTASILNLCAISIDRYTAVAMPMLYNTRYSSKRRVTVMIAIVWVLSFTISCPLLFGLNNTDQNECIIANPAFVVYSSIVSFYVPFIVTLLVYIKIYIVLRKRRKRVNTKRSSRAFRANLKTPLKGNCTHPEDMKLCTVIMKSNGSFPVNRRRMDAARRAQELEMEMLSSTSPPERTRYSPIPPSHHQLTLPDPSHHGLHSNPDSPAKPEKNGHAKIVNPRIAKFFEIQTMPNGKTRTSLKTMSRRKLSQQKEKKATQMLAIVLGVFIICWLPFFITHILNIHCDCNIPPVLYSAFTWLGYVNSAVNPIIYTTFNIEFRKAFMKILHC

IC50 [1] [µM]	Ratio (Rattus norvegicus)	Ratio [2]	IC50 [3] [µM]	IC50 (D(2) dopamine receptor) [µM]	Compound
2	310	344	–	–	Cl.O=C1c2ccccc2OC=C(Cl)N1CCCCN1CCC(c2ncccn2)CC1
–	–	–	0.314	–	O=C1c2ccccc2OC=C(Cl)N1CCCCN1CCCC(c2ncccn2)C1 (stereo not given)
0.384	11	4.8	0.0796	0.893	O=C(O)/C=C/C(=O)O.O=C1c2ccccc2OC=C(Cl)N1CCCCN1CCC=C(c2ncccn2)C1
0.043	66	56	–	–	O=C1c2ccccc2OC=C(Cl)N1CCCCN1CCN(c2ccccn2)CC1
0.544	125	342	–	–	O=C1c2ccccc2OC=C(Cl)N1CCCCN1CCN(c2ncccn2)CC1

Compound	IC50 [1] [µM]	Ratio (Rattus norvegicus)	Ratio [2]	IC50 [3] [µM]	IC50 (D(2) dopamine receptor) [µM]
Cl.O=C1c2ccccc2OC=C(Cl)N1CCCCN1CC=C(c2ncccn2)CC1	0.924	358	670	–	–
Cl.O=C1c2ccccc2OC=C(Cl)N1CCCCN1CCC(O)(c2ncccn2)CC1	9.56	–	3.6	–	–
